Experimental data as given in patent publication US20050240034A1, “Artemisinin-based peroxide compounds as broad spectrum anti-infective agents” (priority 2002, published 2005).

Legend:
[1] = test system: P. falciparum Indochina W2 clone; assay: WHO/TDR in vitro antimalarial screen, W2 clone; assay type: cell-based, Plasmodium falciparum; conditions: chloroquine-resistant, mefloquine-sensitive, second value in brackets not explained
Protocol: (§1) All test compounds are solubilized in DMSO and diluted 400 fold (to rule out a DMSO effect) in culture medium with plasma for a starting concentration of at least 12,500 ng/mL. Drugs are subsequently diluted five fold using the Cetus Pro/Pette system utilizing a range of concentrations from 0.8 ng/mL to 12,500 ng/mL. Fifty percent inhibitory concentrations are reported in ng/mL.
(§2) The D6 African P. falciparum clone is sensitive to chloroquine, pyrimethamine and sulfadoxine but resistant to mefloquine. The W2 Indochina P. falciparum clone is resistant to chloroquine, pyrimethamine and sulfadoxine but sensitive to mefloquine. The K1 P. falciparum is a resistant strain, where NF54 P. falciparum is a sensitive strain.

[2] = test system: P. falciparum W2 (IndoChina); assay: antimalarial parasite LDH (pLDH) assay, W2; assay type: cell-based, Plasmodium falciparum; conditions: for P. falciparum (IC50) W2: LDH assay, Table 6; for S. I. (W2): Selectivity Index = IC50 (Vero cells)/IC50 (P. falciparum)
Protocol: (§3) The Thad Cochran National Center for Natural Products Research (University of Mississippi) in vitro antimalarial screen was conducted using an enzyme assay for detection of P. falciparum (see procedure below). This assay is based on the observation that lactate dehydrogenase (LDH) of P. falciparum is distinguishable from host LDH activity. P. falciparum LDH rapidly uses 3-acetyl pyridine nicotinamide adenine dinucleotide (APAD) as a coenzyme in the biotransformation of […].^38 The same process is carried out in human red blood cells at a very slow rate.
(§4) The “Antimalarial parasite LDH assay” is currently being conducted according the following procedure: prepare a suspension of RBC with a 2% parasitemia and 2% hematocrit in malaria complete medium. Dispense 200 μl aliquots of this suspension into each well of a 96 well microtiter plate. Add 10 μl volumes of the drugs to be tested in duplicate to the appropriate wells. Place the plates into humidified chamber and flush the cultures with a gas mixture consisting of 90% N2, 5% O2, and 5% CO2. Transfer the chamber containing the plates to an incubator, and incubate for 48 hours at 37° C. After 48 hours add 100 μl aliquots of the Malstat™ reagent to each well of a new 96-well microtiter plate Resuspend the cultures from the assay plate by mixing each well up and down several times. Remove 20 μl from each well of the resuspend culture and add to the plate containing the Malstat™ reagent. Incubate the plates at room temperature for 30 minutes. After 30 minutes, add to each well 20 μl of the 1:1 mixture of the NBT/PES solution (2 mg/ml and 0.1 mg/ml, respectively). Incubate the plates in the dark for 1 hour. Add 100 μl of 5% acetic acid solution to stop the reaction. The plate is then read at an endpoint of approximately 650 nm. The dose response curves are generated using Microsoft Excel.
(§5) Antimalarial activity of the analogues was determined in vitro on chloroquine sensitive (D)6, Sierra Leone) and resistant (W2, IndoChina) strains of Plasmodium falciparum. The 96 well microplate assay is based on evaluation of the effect of the compounds on the growth of asynchronous cultures of P. falciparum, determined by the assay of parasite lactate dehydrogenase (pLDH) activity.^28 The appropriate dilutions of the compounds were prepared in DMSO or RPMI-1640 medium and added to the cultures of P. falciparum (2% hematocrit, 2% parasitemia) set up in clear flat bottomed 96 well plates. The plates were placed into the humidified chamber and flushed with a gas mixture of 90% N2, 5% CO2 & 5% O2. The cultures were incubated at 37° C. for 48 hours. Growth of the parasite in each well was determined by pLDH assay using Malstat® reagent. The medium and RBC controls were also set-up in each plate.

[3] = test system: VERO cells (monkey kidney fibroblast); assay type: cell-based
Protocol: Antileishmanial activity of the compounds was tested on a transgenic cell line of Leishmania donovani promastigotes expressing firefly luciferase.^29a In a 96 well microplate assay, compounds with appropriate dilution were added to the leishmania promastigotes culture (2×10^6 cell/mL). The plates were incubated at 26° C. for 72 hours and growth of leishmania promastigotes was determined by luciferase assay with Steady Glo® reagent (Promega, USA). Pentamidine and Amphotericin B were used as standard antileishmanial agents. The analogues were simultaneously tested for cytotoxicity on VERO cells (monkey kidney fibroblast) by Neutral Red assay.^29b IC50 values for the compounds were computed from the growth inhibition curve.

P. falciparum K1 = assay: WHO/TDR in vitro antimalarial screen, K1; assay type: cell-based, Plasmodium falciparum; conditions: K1, chloroquine-resistant
Protocol: as §1, with “[…]. All” for “All”
as §2

[4] = test system: P. falciparum Sierra Leone D6 clone; assay: WHO/TDR in vitro antimalarial screen (uptake of radiolabeled nucleic acid precursor), D6 clone; assay type: cell-based, Plasmodium falciparum; conditions: mefloquine-resistant, chloroquine-sensitive, second value in brackets not explained
Protocol: as §1, §2

[5] = pharmacokinetics in rats after intravenous and oral administration; assay type: in vivo; conditions: for absolute oral bioavailability: high oral dose (~120 mg/kg)
Protocol: Preliminary data for the PK results of compounds 39 and 36 have been disclosed. […] Due to their very low aqueous solubility, the absolute oral bioavailability of each compound was low. The low value is rather a function of the high oral dose (˜120 mg/kg), but even with these high doses, the plasma concentrations are still relatively low.
The reason for the use of high oral dose is that the LC/MS assay has different intrinsic sensitivities for the different series of the Malperox compounds. Also, in order to compare all compounds from the different series at the same oral molar dose (dictated by the compound, which has the highest LOQ in the assay), it was necessary for them to have gone with this dose.
(§6) Compounds 39 and 36 have reasonably low plasma LOQ of about 10 ng/mL, so it will be tested with lower oral doses in the coming future. If we assume that it is only the fraction of drug in solution that is absorbed, then the oral bioavailabilities may well increase with lower doses.
Solubility limitations meant that 36 could only be dosed IV at approximate 2 mg/kg (compared with the approximate 12 mg/kg dose for 39). It is possible that the shorter measured half life for 36 was a function of lower plasma concentrations, which have reflected part of the distribution phase rather than a true elimination phase.

P. yoelli ssp. NS = assay: in vivo 4-day antimalarial test in mice, P. yoelli ssp. NS; conditions: subcutaneous; unit not given
Protocol: (§7) The parasitemia is determined on the day following the last treatment—day 4 to determine qualitatively the presence and degree of activity at the screening dose.

aqueous solubility = assay type: physicochemical; conditions: pH 6.5, phosphate buffer
Protocol: as §6

P. berghei N = assay: in vivo Peter's 4-day antimalarial test in mice, P. berghei N; conditions: mice, 4-day test, unit not given; for P. berghei N P.O. ED50 / P. berghei N P.O. ED90: oral; for P. berghei N S.C. ED50 / P. berghei N S.C. ED90: subcutaneous
Protocol: as §7

[6] = test system: P. falciparum D6 (Sierra Leone); assay: antimalarial parasite LDH (pLDH) assay, D6; assay type: cell-based, Plasmodium falciparum; conditions: for P. falciparum (IC50) D6: LDH assay, Table 6; for S. I. (D6): Selectivity Index = IC50 (Vero cells)/IC50 (P. falciparum)
Protocol: as §3, §4
as §5, with “plate. The standard antimalarial agents, chloroquine and artemisinin, were used as the positive controls while DMSO was tested as the negative control.” for “plate.”

P. falciparum NF54 = assay: WHO/TDR in vitro antimalarial screen, NF54; assay type: cell-based, Plasmodium falciparum; conditions: NF54, chloroquine-sensitive; second value in brackets not explained
Protocol: as §1, with “[…]. All” for “All”
as §2

P. falciparum = conditions: cited from earlier work

Compound | P. falciparum (IC50) W2 [1] [µg/mL] | P. falciparum (IC50) W2 [2] [µg/mL] | S. I. (W2) [2] | Cytotoxicity (Vero) TC50 [3] | P. falciparum (IC50) K1 (P. falciparum K1) [µg/mL] | P. falciparum (IC50) D6 [4] [µg/mL] | absolute oral bioavailability [5] | P. yoelli ssp. NS (S.C.) ED50 (P. yoelli ssp. NS) | P. yoelli ssp. NS (S.C.) ED90 (P. yoelli ssp. NS) | aqueous solubility (aqueous solubility) [microgram per mL] | P. berghei N P.O. ED50 (P. berghei N) | P. berghei N P.O. ED90 (P. berghei N) | P. berghei N S.C. ED50 (P. berghei N) | P. berghei N S.C. ED90 (P. berghei N) | P. falciparum (IC50) D6 [6] [µg/mL] | S. I. (D6) [6] | P. falciparum (IC50) NF54 (P. falciparum NF54) | half-life ([5]; IV, approximate 12 mg/kg) [h] | times more potent than the parent compound (artemisinin) in vitro (P. falciparum)
(+)-Octahydro-3,6α-dimethyl-3,12-epoxy-9β-(3′-(m-chlorophenyl)propyl)-12H-pyrano[4,3j]-1,2-benzodioxepin [Compound 36] | 0.0216 | 0.008 | >60 | NC^b | 0.01007 | 0.00755 | low | 0.60 (0.4-1.0) | 1.00 (0.8-1.8) | ~0.1 | 2.0 (0.9-3.5) | 8.3 (3.5-14.0) | 0.5 (0.1-1.0) | 0.9 (0.3-1.8) | 0.0076 | >63.0 | 16.27 (40.19) ng/mL |  | 
(+)-Octahydro-3,6α-dimethyl-3,12-epoxy-9β-(3′-(p-trifluoromethylphenyl)propyl)-12H-pyrano[4,3j]-1,2-benzodioxepin [Compound 39] | 0.05801 | 0.012 | >40 |  | 0.03955 | 0.02813 | low | 0.67 (0.5-0.88) | 1.25 (0.95-1.6) | ~0.1 | 0.63 (0.32-1.25) | 2.1 (1.1-4.1) | 0.44 (0.25-0.62) | 0.85 (0.5-1.2) | 0.012 | >40 | 101.52 (48.78) ng/mL | 1.22 | 
C[C@H]1[C@@H](O)O[C@@H]2O[C@@]3(C)CC[C@H]4[C@H](C)CC[C@@H]1[C@@]24OO3 [dihydroartemisinin] |  |  |  |  |  |  |  |  |  |  |  |  |  |  |  |  |  |  | approximately 10 times
